Where two headings read alike, the source gives them in different places.
Tests used:
[1] = Plasma compound exposure in rats (tail bleed, day 6); format: in vivo; settings: rat
Description: (§1) All animals (telemetry-instrumented) are single housed in metabolic cages. Rats are acclimated to the metabolic cage for at least 3 days and then dosed with vehicle for up to 4 days. Blood pressure, heart rate, and bodyweight are collected during the baseline period and animals are randomized into 3 groups based on these parameters (n=8-9/group). Treatment groups are: vehicle and test compound (10 mg/kg po and 30 mg/kg po qd); animals are treated with compound for 5 days. […] Mean arterial pressure (MAP) and heart rate (HR) are collected continuously throughout the study. Statistical analyses is performed using GraphPad Prism based on the average 24-hr mean value during five days of compound administration (one-way ANOVA with Dunnett's post-test vs. Vehicle; p<0.05 is considered statistically significant).

[2] = tested on: mean arterial pressure (MAP); settings: rat, in vivo; for 5-Day 24-h MAP Change versus Control: po
Description: In-Vivo Assay—Comparison Between the Compounds of the Present Invention and Comparative Compounds A, B and C
In a side-by-side in-vivo study, select compounds of the present invention and comparative compounds A-C are evaluated in telemetry-instrumented conscious rats to determine their effects on mean arterial pressure (MAP) at doses at or above therapeutically relevant concentrations.
as §1

[3] = molecular target: human recombinant BTK (full length, His-tagged) (Homo sapiens (Human), UniProt Q06187); assay: BTK Z'-LYTE assay; format: biochemical; settings: 25 μM ATP;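 further: FRET readout of kinase phosphorylating a coumarin and fluorescein labelled synthetic peptide, detected via protease sensitivity of unphosphorylated versus phosphorylated substrate, incubated at 22 °C in 384-well plates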
Description: Z′-LYTE™ Assay (Life Technologies):
(§3) The Z′-Lyte assay employs a FRET-based, coupled-enzyme format and is based on the differential sensitivity of phosphorylated and non-phosphorylated peptides to proteolytic Cleavage. The activity of human recombinant BTK (full length, His-tagged), BMX (full length, His-tagged) or Txk (full length, GST-tagged) is estimated by measuring the phosphorylation of a synthetic FRET peptide substrate labeled with Coumarin and Fluorescein. […] Incubations are carried out at 22° C. in black polypropylene 384-well plates (Corning).
(§4) Representative compounds of the present invention are assessed for inhibition of BTK, BMX, and TXK measuring phosphorylation of a substrate (Z′-LYTE™ assay, Life Technologies) and TEC measuring displacement of a “tracer” (Lanthscreen® Eu Kinase Binding assay, Life Technologies).

[4] = molecular target: human recombinant full length TEC (His-tagged) (Homo sapiens (Human), UniProt P42680); assay: TEC Lanthscreen Eu Kinase Binding assay; settings: 1 nM TEC
[5] = molecular target: EGFR (EGFR phosphorylation in A431 cells) (Homo sapiens (Human), UniProt P00533); assay: Inhibition of EGFR autophosphorylation in A431 human epithelial cells stimulated with EGF; format: cell-based; settings: EGF 60 ng/mL, read-out: A431 p-EGFR IC50
Description: Inhibition of EGFR Autophosphorylation in A431 Human Epithelial Cells Stimulated with Epithelial Growth Factor
A431 cells (ATCC #CRL-1555 FZ) are thawed and plated in DMEM containing 10% FBS in a 384-well tissue culture treated plate at 15,000 cells/well. After incubating for 24 hours at 37° C., 5% CO2, the cells are treated with test compound (1% DMSO final concentration) and incubated for 16 hours at 37° C., 5% CO2. EGF (Millipore, 01-107) is added at a final concentration of 60 ng/mL and incubated for 10 minutes. The medium is removed, the cells are lysed, and phospho EGFR is measured (Meso Scale Diagnostics, N31CB-1).
(§2) Representative compounds of the present invention are tested and show BTK inhibition (Table I). […] Additionally, compounds of the present invention, as represented by examples in Table II, are selective for BTK inhibition over other related kinases. […] In this table the BTK activity is measured by IL-6 production in primary CD19^+ B cells, and the EGFR activity is measured by EGFR phosphorylation in A431 cells.

[6] = molecular target: human recombinant Txk (full length, GST-tagged) (Homo sapiens (Human), UniProt P42681); assay: TXK Z'-LYTE assay; settings: read-out: TXK IC50, 100 μM ATP;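 further: FRET read-out of kinase phosphorylation of a synthetic peptide labelled with Coumarin and Fluorescein, scored by protease sensitivity of unphosphorylated peptide, incubated at 22 °C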
Description: Z′-LYTE™ Assay (Life Technologies):
as §3, §4

[7] = molecular target: human full length His-tagged BTK (Homo sapiens (Human), UniProt Q06187); assay: BTK Lanthscreen Eu Kinase Binding assay; settings: 2 nM BTK
Description: BTK Lanthscreen® Eu Kinase Binding Assay:
A Lanthscreen® Eu Kinase Binding assay (Life Technologies) is performed to quantitate the ability of test compounds to bind to BTK. The assay is based on the binding and displacement of Alexa Fluor647-labeled Kinase Tracer #236 to the ATP-binding site of human full length His-tagged BTK (Life Technologies cat #PV3587) with TR-FRET detection using a europium-labeled anti-His antibody. The assay is assembled in 384-well low volume NBS black plates (Corning) where 2 nM BTK and test compound in DMSO at varying concentrations are pre-incubated for 30 min at 28° C. in assay buffer consisting of 50 mM HEPES, pH 7.4, 10 mM MgCl2, 1 mM EGTA. 100 μM Na3VO4 and 0.01% Brij 35. Then, 2 nM of Eu-anti His antibody and 30 nM Kinase Tracer are added and incubated for 60 min at 28° C. Following incubation, TR-FRET signal is read on an Envision plate reader (Excitation: 340 nm; Emissions: 615 and 665 nm). The 665:615 nm emission ratio is calculated and converted to POC compared to control and blank wells.

[8] = tested on: BTK (IL-6 production in primary CD19+ B cells); assay: Inhibition of IL-6 production in B cells co-stimulated with ODN 2006 and anti-hIgD; format: cell-based; settings: B-cell, anti-human IgD + ODN 2006
Description: Inhibition of IL-6 Production in B Cells Co-Stimulated with ODN 2006 and anti-hIgD
Primary CD19+ B cells (AllCells #PB010F) are thawed and plated in RPMI containing 10% HI FBS in a 384-well tissue cultured plate at 20,000 cells/well. The cells are treated with test compound (0.5% DMSO final concentration) and incubated for 1 hour at 37° C., 5% CO2. Cells are then stimulated with 5 ug/mL Goat F(ab′)2 anti-human IgD (SouthernBiotech #2032) and 2 uM ODN 2006 (InvivoGen #tlrl-2006) and incubated for 18-24 hours at 37° C., 5% CO2. IL-6 in the supernatant is measured using Meso Scale Discovery kit #K211AKB-6.
as §2

Chain of human recombinant BTK (full length, His-tagged) (Q06187 whole entry): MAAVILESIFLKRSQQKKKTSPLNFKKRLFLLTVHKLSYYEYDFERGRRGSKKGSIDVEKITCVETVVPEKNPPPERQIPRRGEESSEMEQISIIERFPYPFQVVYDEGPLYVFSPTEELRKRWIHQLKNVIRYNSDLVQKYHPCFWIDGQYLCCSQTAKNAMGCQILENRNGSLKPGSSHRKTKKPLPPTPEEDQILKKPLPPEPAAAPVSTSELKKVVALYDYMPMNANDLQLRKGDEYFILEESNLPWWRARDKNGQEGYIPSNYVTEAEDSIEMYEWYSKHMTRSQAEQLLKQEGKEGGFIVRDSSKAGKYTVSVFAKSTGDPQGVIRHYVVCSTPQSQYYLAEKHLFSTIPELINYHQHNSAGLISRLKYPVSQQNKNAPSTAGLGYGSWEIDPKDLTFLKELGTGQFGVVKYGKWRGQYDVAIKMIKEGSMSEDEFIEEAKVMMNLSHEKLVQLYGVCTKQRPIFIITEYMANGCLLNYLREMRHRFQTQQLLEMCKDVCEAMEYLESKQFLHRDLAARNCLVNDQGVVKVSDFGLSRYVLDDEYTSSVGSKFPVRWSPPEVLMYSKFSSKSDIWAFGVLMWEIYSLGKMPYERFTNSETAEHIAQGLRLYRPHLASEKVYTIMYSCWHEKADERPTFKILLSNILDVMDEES
Chain of human full length His-tagged BTK (Q06187 whole entry): as above
Chain of human recombinant full length TEC (His-tagged) (P42680 whole entry): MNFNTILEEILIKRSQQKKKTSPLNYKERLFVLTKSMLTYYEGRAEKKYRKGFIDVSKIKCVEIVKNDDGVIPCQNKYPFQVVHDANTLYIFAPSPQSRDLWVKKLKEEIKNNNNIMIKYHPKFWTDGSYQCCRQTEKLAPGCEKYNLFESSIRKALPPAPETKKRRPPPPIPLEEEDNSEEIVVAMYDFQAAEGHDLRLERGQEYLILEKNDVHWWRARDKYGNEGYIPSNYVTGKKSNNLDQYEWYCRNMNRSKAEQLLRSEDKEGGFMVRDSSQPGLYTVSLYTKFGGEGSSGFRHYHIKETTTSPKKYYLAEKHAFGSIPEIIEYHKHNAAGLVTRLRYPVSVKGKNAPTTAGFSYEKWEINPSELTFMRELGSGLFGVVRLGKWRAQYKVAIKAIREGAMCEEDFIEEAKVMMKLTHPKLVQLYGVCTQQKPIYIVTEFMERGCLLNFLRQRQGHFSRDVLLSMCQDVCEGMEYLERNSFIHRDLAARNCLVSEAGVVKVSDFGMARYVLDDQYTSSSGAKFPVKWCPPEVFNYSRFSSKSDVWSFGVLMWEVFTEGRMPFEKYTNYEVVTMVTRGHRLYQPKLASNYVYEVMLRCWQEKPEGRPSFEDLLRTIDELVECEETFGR
Chain of EGFR (EGFR phosphorylation in A431 cells) (P00533 25-1210): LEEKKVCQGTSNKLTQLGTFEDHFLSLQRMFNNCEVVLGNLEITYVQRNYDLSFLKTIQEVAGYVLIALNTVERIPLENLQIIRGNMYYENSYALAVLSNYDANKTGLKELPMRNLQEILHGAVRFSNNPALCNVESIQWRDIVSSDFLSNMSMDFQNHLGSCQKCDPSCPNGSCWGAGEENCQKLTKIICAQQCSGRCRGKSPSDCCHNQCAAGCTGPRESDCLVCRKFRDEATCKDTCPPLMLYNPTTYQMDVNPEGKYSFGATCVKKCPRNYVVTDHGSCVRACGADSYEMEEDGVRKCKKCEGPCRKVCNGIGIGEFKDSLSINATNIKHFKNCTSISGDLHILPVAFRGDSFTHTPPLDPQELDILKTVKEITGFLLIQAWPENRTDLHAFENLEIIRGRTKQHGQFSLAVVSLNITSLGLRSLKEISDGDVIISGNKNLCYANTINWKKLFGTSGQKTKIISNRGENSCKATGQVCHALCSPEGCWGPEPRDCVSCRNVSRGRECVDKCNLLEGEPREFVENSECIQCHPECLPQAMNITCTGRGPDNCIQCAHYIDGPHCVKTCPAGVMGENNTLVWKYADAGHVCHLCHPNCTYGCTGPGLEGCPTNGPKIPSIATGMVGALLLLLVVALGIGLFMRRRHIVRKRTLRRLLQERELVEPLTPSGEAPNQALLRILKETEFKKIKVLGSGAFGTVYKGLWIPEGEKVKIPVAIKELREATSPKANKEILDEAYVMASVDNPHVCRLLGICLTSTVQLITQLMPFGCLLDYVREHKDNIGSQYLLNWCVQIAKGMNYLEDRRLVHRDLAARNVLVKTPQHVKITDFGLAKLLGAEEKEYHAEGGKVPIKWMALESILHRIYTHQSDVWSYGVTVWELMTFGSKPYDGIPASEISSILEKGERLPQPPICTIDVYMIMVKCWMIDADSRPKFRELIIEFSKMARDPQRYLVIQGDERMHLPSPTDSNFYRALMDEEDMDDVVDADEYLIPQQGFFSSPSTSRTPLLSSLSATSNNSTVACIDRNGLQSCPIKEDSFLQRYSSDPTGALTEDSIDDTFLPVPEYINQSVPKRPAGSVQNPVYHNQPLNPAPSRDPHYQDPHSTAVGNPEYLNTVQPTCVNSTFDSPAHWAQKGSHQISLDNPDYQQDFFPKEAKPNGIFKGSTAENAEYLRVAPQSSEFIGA
Chain of human recombinant Txk (full length, GST-tagged) (P42681 whole entry): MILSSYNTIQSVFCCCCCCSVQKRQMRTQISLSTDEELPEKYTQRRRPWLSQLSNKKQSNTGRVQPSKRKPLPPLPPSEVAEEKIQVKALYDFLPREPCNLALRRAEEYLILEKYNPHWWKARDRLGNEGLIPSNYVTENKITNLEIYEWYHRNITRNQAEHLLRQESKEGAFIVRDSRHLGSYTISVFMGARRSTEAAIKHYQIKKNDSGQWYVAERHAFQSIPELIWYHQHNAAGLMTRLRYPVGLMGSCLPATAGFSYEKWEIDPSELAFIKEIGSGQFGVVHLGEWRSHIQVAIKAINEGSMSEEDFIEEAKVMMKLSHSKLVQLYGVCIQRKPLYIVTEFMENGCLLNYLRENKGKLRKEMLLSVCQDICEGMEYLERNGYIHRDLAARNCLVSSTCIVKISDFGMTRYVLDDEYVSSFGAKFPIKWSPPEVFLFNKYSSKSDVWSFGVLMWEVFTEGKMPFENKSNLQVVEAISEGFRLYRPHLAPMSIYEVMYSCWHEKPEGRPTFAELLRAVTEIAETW

## C=CC(=O)N1CCC[C@@H](n2nc(-c3ccc(Oc4ccccc4)cc3)c3c(N)ncnc32)C1 [Compound A, 1-[(3R)-3-[4-amino-3-(4-phenoxyphenyl)pyrazolo[3,4-d]pyrimidin-1-yl]-1-piperidyl]prop-2-en-1-one]
[1]; plasma, 10 mg/kg po qd
  Cmax: 319 ± 36 nM
[1]; plasma, 30 mg/kg po qd
  Cmax: 561 ± 183 nM
[2]
  effect on mean arterial pressure (MAP): statistically significant increases in MAP
[2]; 10 mg/kg, 5 days
  5-Day 24-h MAP Change versus Control: 3 ± 1 mmHg
[2]; 30 mg/kg, 5 days
  5-Day 24-h MAP Change versus Control: 4 ± 1 mmHg

## CC#CC(=O)N1CCC2(CC(n3nc(-c4ccc(OC(C)C)cc4)c(C(N)=O)c3N)C2)C1 (stereo not shown) [Compound B, 5-amino-1-(7-but-2-ynoyl-7-azaspiro[3.4]octan-2-yl)-3-(4-isopropoxyphenyl) pyrazole-4-carboxamide]
[3]
  IC50: 0.9 nM
[1]; 10 mg/kg po qd
  Cmax: 182 ± 17 nM
[1]; 30 mg/kg po qd
  Cmax: 480 ± 53 nM
[2]
  effect on mean arterial pressure (MAP): statistically significant increases in MAP
[2]; 10 mg/kg
  5-Day 24-h MAP Change versus Control: 3 ± 1 mmHg
[2]; 30 mg/kg
  5-Day 24-h MAP Change versus Control: 2 ± 1 mmHg
[4]
  IC50: 44 nM

## CC#CC(=O)N1CC[C@]2(C1)C[C@H](n1nc(-c3cnn(Cc4ccc(F)c(C(F)(F)F)c4)c3)c(C(N)=O)c1N)C2 [Example 30]
[3]
  IC50: 3 nM
[5]
  IC50: > 10000 nM
[6]
  IC50: 160 nM
[7]
  IC50: 0.6 nM
[4]
  IC50: 64 nM
[8]
  IC50: 2.4 nM

## CC#CC(=O)N1CC[C@]2(C1)C[C@H](n1nc(-c3c(C)nn(Cc4cccc(C(F)(F)F)c4)c3C)c(C(N)=O)c1N)C2 [Example 21]
[3]
  IC50: 40 nM
[5]
  IC50: > 10000 nM
[6]
  IC50: 1900 nM
[7]
  IC50: 5.8 nM
[4]
  IC50: 1100 nM
[8]
  IC50: 9.2 nM

## CC#CC(=O)N1CC[C@]2(C1)C[C@H](n1nc(-c3cnn(Cc4cccc(C(F)(F)F)c4F)c3)c(C(N)=O)c1N)C2 [Example 33]
[3]
  IC50: 1.3 nM
[5]
  IC50: > 10000 nM
[6]
  IC50: 59 nM
[7]
  IC50: 0.4 nM
[4]
  IC50: 48 nM
[8]
  IC50: 1.2 nM

## CC#CC(=O)N1CC[C@]2(C1)C[C@H](n1nc(-c3cnn(Cc4cccc(C(F)F)c4)c3)c(C(N)=O)c1N)C2 [Example 36]
[3]
  IC50: 1 nM
[5]
  IC50: > 10000 nM
[6]
  IC50: 50 nM
[7]
  IC50: 0.2 nM
[4]
  IC50: 22 nM
[8]
  IC50: 0.5 nM

## CC#CC(=O)N1CC[C@]2(C1)C[C@H](n1nc(-c3cnn(Cc4ccccc4F)c3)c(C(N)=O)c1N)C2 [Example 60]
[3]
  IC50: 1.7 nM
[5]
  IC50: > 10000 nM
[6]
  IC50: 100 nM
[7]
  IC50: 0.5 nM
[4]
  IC50: 35 nM
[8]
  IC50: 0.6 nM

## CC#CC(=O)N1CC[C@]2(C1)C[C@H](n1nc(-c3cn(Cc4cccc(C(F)(F)F)c4)nc3C)c(C(N)=O)c1N)C2 [Example 19]
[3]
  IC50: 5 nM
[5]
  IC50: > 10000 nM
[6]
  IC50: 220 nM
[7]
  IC50: 0.9 nM
[4]
  IC50: 160 nM
[8]
  IC50: 2.3 nM

## CC#CC(=O)N1CC[C@]2(C1)C[C@H](n1nc(-c3cnn(Cc4cccc(C(F)(F)F)c4C)c3)c(C(N)=O)c1N)C2 [Example 6]
[3]
  IC50: 1.5 nM
[5]
  IC50: > 10000 nM
[6]
  IC50: 43 nM
[7]
  IC50: 0.4 nM
[4]
  IC50: 65 nM
[8]
  IC50: 1 nM

## CC#CC(=O)N1CC[C@]2(C1)C[C@H](n1nc(-c3ccn(Cc4cccc(C(F)(F)F)c4)n3)c(C(N)=O)c1N)C2 [Example 25]
[3]
  IC50: 19 nM
[5]
  IC50: > 10000 nM
[6]
  IC50: 850 nM
[7]
  IC50: 2.6 nM
[4]
  IC50: 160 nM
[8]
  IC50: 6.1 nM

## CC#CC(=O)N1CC2(CC(n3nc(-c4cnn(Cc5cccc(C(F)(F)F)c5)c4)c(C(N)=O)c3N)C2)C1 [Example 47]
[3]
  IC50: 2.7 nM
[5]
  IC50: > 10000 nM
[6]
  IC50: 310 nM
[7]
  IC50: 0.5 nM
[4]
  IC50: 34 nM
[8]
  IC50: 1.1 nM

## C=CC(=O)Nc1cccc(Nc2nc(Nc3ccc(OCCOC)cc3)ncc2F)c1 [Compound C, N-(3-(5-fluoro-2-(4-(2-methoxyethoxy)phenylamino)pyrimidin-4-ylamino)phenyl)acrylamide]
[1]; plasma, 10 mg/kg po qd
  Cmax: 644 ± 96 nM
[1]; plasma, 30 mg/kg po qd
  Cmax: 1730 ± 434 nM
[6]
  IC50: 22 nM
[2]
  effect on mean arterial pressure (MAP): statistically significant increases in MAP
[2]; 10 mg/kg, 5 days
  5-Day 24-h MAP Change versus Control: 4 ± 1 mmHg
[2]; 30 mg/kg, 5 days
  5-Day 24-h MAP Change versus Control: 5 ± 1 mmHg
[4]
  IC50: 6.8 nM

## CC#CC(=O)N1CC[C@]2(C1)C[C@H](n1nc(-c3cnn(Cc4cccc(F)c4Cl)c3)c(C(N)=O)c1N)C2 [Example 53]
[3]
  IC50: 1.3 nM
[5]
  IC50: > 10000 nM
[6]
  IC50: 84 nM
[7]
  IC50: 0.3 nM
[4]
  IC50: 47 nM
[8]
  IC50: 0.4 nM

## CC#CC(=O)N1CC[C@]2(C1)C[C@H](n1nc(-c3cnn(Cc4cccc(F)c4C(F)(F)F)c3)c(C(N)=O)c1N)C2 [Example 56]
[3]
  IC50: 2.2 nM
[5]
  IC50: > 10000 nM
[6]
  IC50: 150 nM
[7]
  IC50: 0.6 nM
[4]
  IC50: 120 nM
[8]
  IC50: 0.7 nM

## CC#CC(=O)N1CC[C@]2(C1)C[C@H](n1nc(-c3cnn(Cc4cc(F)ccc4Cl)c3)c(C(N)=O)c1N)C2 [Example 55]
[3]
  IC50: 2.5 nM
[5]
  IC50: > 10000 nM
[6]
  IC50: 79 nM
[7]
  IC50: 0.7 nM
[4]
  IC50: 67 nM
[8]
  IC50: 1.5 nM

## CC#CC(=O)N1CC[C@]2(C1)C[C@H](n1nc(-c3cnn(Cc4ccccc4C)c3)c(C(N)=O)c1N)C2 [Example 16]
[3]
  IC50: 13 nM
[5]
  IC50: > 10000 nM
[6]
  IC50: 430 nM
[7]
  IC50: 1.5 nM
[4]
  IC50: 220 nM
[8]
  IC50: 2 nM

## C=CC(=O)N1CC[C@]2(C1)C[C@H](n1nc(-c3cnn(Cc4cccc(C(F)(F)F)c4F)c3)c(C(N)=O)c1N)C2 [Example 26]
[3]
  IC50: 18 nM
[5]
  IC50: > 10000 nM
[6]
  IC50: 3000 nM
[7]
  IC50: 2.6 nM
[4]
  IC50: 430 nM
[8]
  IC50: 4 nM

## CC#CC(=O)N1CC[C@]2(C1)C[C@H](n1nc(-c3cn(Cc4cccc(C)c4)nc3C)c(C(N)=O)c1N)C2 [Example 52]
[3]
  IC50: 7 nM
[5]
  IC50: > 10000 nM
[6]
  IC50: 260 nM
[7]
  IC50: 1.2 nM
[4]
  IC50: 100 nM
[8]
  IC50: 0.5 nM

## CC#CC(=O)N1CC[C@]2(C1)C[C@H](n1nc(-c3cnn(Cc4cccc(C5CC5)c4)c3)c(C(N)=O)c1N)C2 [Example 51]
[3]
  IC50: 0.8 nM
[5]
  IC50: > 10000 nM
[6]
  IC50: 12 nM
[7]
  IC50: 0.3 nM
[4]
  IC50: 18 nM
[8]
  IC50: 1.9 nM

## CC#CC(=O)N1CC[C@]2(C1)C[C@H](n1nc(-c3cnn(Cc4cccc(C(F)(F)F)c4)c3)c(C(N)=O)c1NC)C2 [Example 23]
[3]
  IC50: 8.3 nM
[5]
  IC50: > 10000 nM
[6]
  IC50: 600 nM
[7]
  IC50: 1.3 nM
[4]
  IC50: 130 nM
[8]
  IC50: 4.5 nM

From patent publication US9975882B2, “Heteroaromatic compounds as BTK inhibitors” (Boehringer Ingelheim International GmbH, priority 2015, dated 2018)
